This series is described as follows: Example 2: HPLC analysis of oligosaccharides, fructose isomers and lactose at pH 6 and 7 over aseptic filling and room temperature storage. The series is classed as physicochemical. The protocol:
Oligosaccharides 2′Fucosyllactose (2′FL) and Lacto-N-neotetraose (LNnT) were mixed in a 10:1 ratio (w/w) and dissolved in water to a final concentration of 10% (w/v). Out of this solution, […] samples were generated respectively having pH 6 and 7 (by addition of KOH) Such samples were subjected to heat treatment (UHT) followed by aseptic filling of small monodose bottles. Solutions at different pHs were analysed before and after filling of bottles as well as after different times of storage at room temperature (21-26° C.). Analysis was done by HPLC using a TSK gel Amide-80 (150 mm×4.6 mm, particle size: 3 μm) column and detection via a charged aerosol detector. F or 2′FL (FIG. 2a), LNnT (FIG. 2d), the fructose isomers of the added 2′FL (indicated as FL lactulose in the graphs, FIG. 2d) and of added LNnT (indicated as LNnT isomer in the graphs, FIG. 2e) as well as for their degradation products (lactose, FIG. 2c). The pH of the solution was also measured. All data are expressed as % of added oligosaccharides.

Structures are written as SMILES.

As for `CC(=O)N[C@H]1[C@H](O[C@H]2[C@@H](O)[C@@H](CO)O[C@@H](O[C@H]3[C@H](O)[C@@H](O)C(O)O[C@@H]3CO)[C@@H]2O)O[C@H](CO)[C@@H](O[C@@H]2O[C@H](CO)[C@H](O)[C@H](O)[C@H]2O)[C@@H]1O` (mixture of isomers) [LNnT, lacto-N-neotetraose], the LNnT isomers formation result (pH 6, compared with pH 7) is recorded as “much lower”. The “oligosaccharide amounts at aseptic filling and over time” value (pH 6, UHT, aseptic filling, storage at 21-26° C., 2′FL:LNnT 10:1, 10% w/v) is recorded as “much more stable”.

Values taken from US20220016144A1, “STABLE AQUEOUS COMPOSITION COMPRISING OLIGOSACCHARIDES” (SOCIETE DES PRODUITS NESTLE S.A., priority 2018, published 2022).
